Experimental data published in ChEMBL document CHEMBL5137027, “Discovery of quinazoline derivatives CZw-124 as a pan-TRK inhibitor with potent anticancer effects in vitro and in vivo” (Eur J Med Chem, 2022).
Each block holds one compound with its values, some of them ahead of it.

Experiments:
[1] = target: High affinity nerve growth factor receptor (Homo sapiens, UniProt P04629, G595R); test: Inhibition of TRKA G595R mutant (unknown origin)
BaF3 [2] = test: Antiproliferative activity against mouse BaF3 cells harboring TRKA G667C mutant assessed as inhibition of cell growth incubated for 72 hrs by CCK8 assay; format: functional, cell-based; details: BaF3, 72 h
BaF3 [3] = test: Antiproliferative activity against mouse BaF3 cells harboring TRKA G595R mutant assessed as inhibition of cell growth incubated for 72 hrs by CCK8 assay; format: functional, cell-based; details: BaF3, 72 h
KM12 [4] = test: Antiproliferative activity against human KM12 cells assessed as inhibition of cell growth incubated for 72 hrs by CCK8 assay; format: functional, cell-based; details: KM12, 72 h
BaF3 [5] = test: Antiproliferative activity against mouse BaF3 cells harboring TRKA F589L mutant assessed as inhibition of cell growth incubated for 72 hrs by CCK8 assay; format: functional, cell-based; details: BaF3, 72 h
A549 = test: Antiproliferative activity against human A549 cells assessed as inhibition of cell growth incubated for 72 hrs by CCK8 assay; format: functional, cell-based; details: A549, 72 h
MCF7 = test: Antiproliferative activity against human MCF7 cells assessed as inhibition of cell growth incubated for 72 hrs by CCK8 assay; format: functional, cell-based; details: MCF7, 72 h
[6] = Toxicity in nude BALB/c mouse xenografted with human KM12 cells assessed as changes in body weight at 40 mg/kg, po qd measured every 3 days for 14 days; format: organism-based; details: in vivo, 336 h, time 14 day
KM12 [7] = test: Antitumor activity against human KM12 cells xenografted in nude BALB/c mouse assessed as tumor growth inhibition at 40 mg/kg, po qd measured every 3 days for 14 days; format: functional; details: KM12, 336 h, time 14 day, read-out: TGI
THLE-2 = test: Antiproliferative activity against human THLE-2 cells assessed as inhibition of cell growth incubated for 72 hrs by CCK8 assay; format: functional, cell-based; details: THLE-2, 72 h
[8] = target: High affinity nerve growth factor receptor (Homo sapiens, UniProt P04629); test: Inhibition of […] human TRKA (436 to 790 residues) expressed in baculovirus expression system using TK as substrate measured after 30 mins in presence of ATP by HTRF assay
[9] = Metabolic stability in human liver microsomes assessed as half life at 100 uM incubated for 60 mins under shaking condition in presence of NADPH by LC-MS/MS analysis; format: ADME, Microsome
[10] = Metabolic stability in human liver microsomes assessed as compound remaining at 100 uM incubated for 60 mins under shaking condition in absence of NADPH by LC-MS/MS analysis; format: ADME, Microsome; details: read-out: Stability
[11] = Metabolic stability in human liver microsomes assessed as compound remaining at 100 uM incubated for 60 mins under shaking condition in presence of NADPH by LC-MS/MS analysis; format: ADME, Microsome; details: read-out: Stability
[12] = Metabolic stability in human microsomes assessed as intrinsic clearance at 100 uM incubated for 60 mins under shaking condition in presence of NADPH by LC-MS/MS analysis; format: ADME, Microsome; details: read-out: CLH

High affinity nerve growth factor receptor (Homo sapiens, UniProt P04629), sequence (P04629 whole entry, the tested form may be a part): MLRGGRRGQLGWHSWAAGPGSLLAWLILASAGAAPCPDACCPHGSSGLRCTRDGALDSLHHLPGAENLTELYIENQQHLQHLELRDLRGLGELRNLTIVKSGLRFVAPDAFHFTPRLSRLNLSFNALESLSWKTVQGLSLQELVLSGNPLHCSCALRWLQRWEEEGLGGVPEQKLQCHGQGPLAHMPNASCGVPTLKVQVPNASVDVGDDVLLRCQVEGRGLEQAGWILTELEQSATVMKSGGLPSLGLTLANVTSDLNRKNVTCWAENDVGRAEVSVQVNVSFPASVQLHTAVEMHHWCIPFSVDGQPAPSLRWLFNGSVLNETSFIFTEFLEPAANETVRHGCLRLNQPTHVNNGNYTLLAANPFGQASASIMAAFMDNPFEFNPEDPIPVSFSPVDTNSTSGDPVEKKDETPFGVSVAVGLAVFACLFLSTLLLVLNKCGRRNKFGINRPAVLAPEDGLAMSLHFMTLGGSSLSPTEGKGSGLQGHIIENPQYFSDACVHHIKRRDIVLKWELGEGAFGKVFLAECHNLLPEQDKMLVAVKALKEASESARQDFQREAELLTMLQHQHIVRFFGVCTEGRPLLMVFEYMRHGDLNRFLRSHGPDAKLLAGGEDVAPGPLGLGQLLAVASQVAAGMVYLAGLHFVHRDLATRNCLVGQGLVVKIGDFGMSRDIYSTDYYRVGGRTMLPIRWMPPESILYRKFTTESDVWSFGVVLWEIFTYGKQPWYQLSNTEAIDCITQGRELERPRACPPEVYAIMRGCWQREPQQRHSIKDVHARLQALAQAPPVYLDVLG
High affinity nerve growth factor receptor (Homo sapiens, UniProt P04629, G595R), sequence (P04629 33-796 G595R limits assumed): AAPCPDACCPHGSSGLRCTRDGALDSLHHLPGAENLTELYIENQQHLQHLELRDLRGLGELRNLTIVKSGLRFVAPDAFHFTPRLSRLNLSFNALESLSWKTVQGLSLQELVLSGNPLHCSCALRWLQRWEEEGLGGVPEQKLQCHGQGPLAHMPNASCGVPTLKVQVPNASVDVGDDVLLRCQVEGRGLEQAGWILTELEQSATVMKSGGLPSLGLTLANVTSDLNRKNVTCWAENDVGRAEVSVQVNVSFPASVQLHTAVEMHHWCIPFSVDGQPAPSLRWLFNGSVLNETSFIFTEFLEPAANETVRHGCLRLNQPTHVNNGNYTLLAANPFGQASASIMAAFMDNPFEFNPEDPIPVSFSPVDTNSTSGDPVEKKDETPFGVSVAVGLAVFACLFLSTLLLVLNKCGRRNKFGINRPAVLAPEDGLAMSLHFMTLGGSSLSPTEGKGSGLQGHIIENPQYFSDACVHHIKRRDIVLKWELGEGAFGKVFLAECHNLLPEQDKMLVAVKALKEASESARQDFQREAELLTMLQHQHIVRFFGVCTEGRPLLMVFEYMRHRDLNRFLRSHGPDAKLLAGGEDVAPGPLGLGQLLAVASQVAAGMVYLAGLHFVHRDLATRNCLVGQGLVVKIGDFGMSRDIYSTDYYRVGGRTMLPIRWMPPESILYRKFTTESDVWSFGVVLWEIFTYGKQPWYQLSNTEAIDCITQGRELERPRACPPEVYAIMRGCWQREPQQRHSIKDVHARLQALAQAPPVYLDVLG

IC50 [1]: 3 µM
Compound: Cc1cc(C(=O)NC(C)(C)C)cc(C#Cc2ccc3c4c(oc3c2)C(C)(C)c2cc(NS(C)(=O)=O)ccc2C4=O)n1

IC50 (BaF3 [2]): 0.13 µM
IC50 (BaF3 [3]): 0.059 µM
IC50 (BaF3 [5]): 0.02 µM
Compound: CC(C)Oc1cc(Nc2nc(N[C@@H](C)c3ccc(F)cn3)ncc2Cl)n[nH]1
IC50 (KM12 [4]): 0.021 µM

IC50 (A549): > 100 µM
IC50 (BaF3 [2]): 0.85 µM
IC50 (MCF7): > 100 µM
IC50 (BaF3 [3]): 2.2 µM
IC50 (BaF3 [5]): 0.26 µM
Compound: O=C(Nc1cnn2ccc(N3CCC[C@H]3c3cc(F)ccc3F)nc12)N1CC[C@@H](O)C1
Activity [6]: Non-Toxic
IC50 (KM12 [4]): 0.0071 µM
inhibition in vivo at 40 mg/kg (KM12 [7]): 78%
IC50 (THLE-2): > 100 µM

IC50 [8]: 0.15 µM
Compound: Fc1ccc(CNc2nc(Nc3cc(C4CC4)[nH]n3)c3ccc(Br)cc3n2)c(F)c1

IC50 [8]: 0.068 µM
Compound: Fc1ccc(CNc2nc(Nc3cc(-c4ccccc4)[nH]n3)c3ccccc3n2)c(F)c1

IC50 [8]: 0.16 µM
Compound: Cc1cc(Nc2nc(NCc3c(F)cccc3F)nc3ccccc23)n[nH]1

IC50 [8]: 0.18 µM
Compound: Cc1cc(Nc2nc(NCc3ccc(Br)cc3)nc3ccccc23)n[nH]1

IC50 [8]: 0.0075 µM
Compound: Cc1cc(Nc2nc(NCc3cc(F)ccc3F)nc3ccccc23)n[nH]1

IC50 [8]: 0.0047 µM
half-life at 100 µM [9]: 25.8 min
remaining at 1 h, 100 µM [10]: 104%
remaining at 1 h, 100 µM [11]: 19.3%
microsomal CLint at 100 µM [12]: 53.7 µL/min/mg
Compound: Fc1ccc(CNc2nc(Nc3cc(C4CC4)[nH]n3)c3ccccc3n2)c(F)c1

IC50 [8]: 0.38 µM
Compound: Cc1cc(Nc2nc(NCc3ccc(Cl)cc3)nc3ccccc23)n[nH]1

half-life at 100 µM [9]: 31.9 min
remaining at 1 h, 100 µM [10]: 99.5%
remaining at 1 h, 100 µM [11]: 28.1%
microsomal CLint at 100 µM [12]: 43.5 µL/min/mg
Compound: Cc1cc(Nc2nc(NCc3ccc(F)cc3F)nc3cc(Cl)ccc23)n[nH]1

IC50 [8]: 0.35 µM
Compound: Cc1cc(Nc2nc(N3CCOCC3)nc3ccc(Cl)cc23)n[nH]1

half-life at 100 µM [9]: 25.5 min
remaining at 1 h, 100 µM [10]: 98.1%
remaining at 1 h, 100 µM [11]: 20.2%
microsomal CLint at 100 µM [12]: 54.3 µL/min/mg
Compound: Cc1ccc2c(Nc3cc(C)[nH]n3)nc(NCc3ccc(F)cc3F)nc2c1

IC50 [8]: 0.02 µM
Compound: Cc1cc(Nc2nc(NCc3ccc(F)cc3)nc3ccccc23)n[nH]1

IC50 [8]: 0.044 µM
Compound: Cc1cc(Nc2nc(NCc3ccc(F)cc3F)nc3ccc(F)cc23)n[nH]1

IC50 [8]: 0.11 µM
Compound: Cc1ccc(CNc2nc(Nc3cc(C)[nH]n3)c3ccccc3n2)cc1

IC50 [8]: 0.017 µM
IC50 (A549): 19 µM
IC50 (MCF7): 9.1 µM
IC50 (BaF3 [3]): 1.1 µM
Compound: Fc1ccc(CNc2nc(Nc3cc(C4CC4)[nH]n3)c3ccc(C(F)(F)F)cc3n2)c(F)c1
IC50 (KM12 [4]): 0.028 µM
IC50 (THLE-2): > 100 µM

IC50 [8]: 0.057 µM
half-life at 100 µM [9]: 50.9 min
remaining at 1 h, 100 µM [10]: 98.3%
remaining at 1 h, 100 µM [11]: 43.4%
microsomal CLint at 100 µM [12]: 27.2 µL/min/mg
Compound: Cc1cc(Nc2nc(NCc3ccc(F)cc3F)nc3cc(C(F)(F)F)ccc23)n[nH]1

IC50 [8]: 1.4 µM
Compound: Cc1cc(Nc2nc(NCc3ccc(C(F)(F)F)cc3)nc3ccccc23)n[nH]1

IC50 (BaF3 [3]): 0.018 µM
IC50 (BaF3 [5]): 0.0082 µM
Compound: C[C@@H]1CCc2ncc(F)cc2[C@H]2CCCN2c2ccn3ncc(c3n2)C(=O)N1 [SELITRECTINIB]
IC50 (KM12 [4]): 0.0028 µM
